The record followed here is patent publication US20260008760A1, “DIPEPTIDYL PEPTIDASE 1 INHIBITORS AND USES THEREOF” (Insmed Incorporated, priority 2024, published 2026).

Where only a bound is given, the exact number is not on record here.

For one experiment, the target named is DPP1 in HL-60 cells (Homo sapiens, UniProt P53634). The experiment in a line: DPP1 Cell IC50 assay. To be noted: 60 min pre-incubation, H-Gly-Phe-AFC substrate, average of n runs, read-out: Avg. IC50 (DPP1 Cell IC50 value ranges). On the set-up: host or cells: HL-60 cells. The experiment is classed as cell-based. As for the experimental part:
Example 99. DPP1 Cell IC50 assay
HL-60 cells (ATCC; Manassas, VA) were maintained in RPMI-1640 supplemented with 20% heat-inactivated FBS and 1× Antibiotic Antimycotic (Cytiva; Marlborough, MA). Media was changed every three to four days and cells were not allowed to exceed 1×10^6 cells per mL. Prior to assay, cells were collected by centrifugation at 500 rcf for 3 minutes, resuspended in PBS and counted. Cells were diluted in PBS to a concentration of 5×10^5 live cells per mL and transferred to black 96-well plates for assay, 60 μL per well. Test articles were diluted in PBS plus 0.5% DMSO, and 20 μL was added to each assay well. Compound was allowed to pre-incubate with cells with gentle shaking at 100 rpm for 60 minutes at 37° C. in a cell culture incubator maintained at 5% CO2, after which 20 μL of 500 μM H-Gly-Phe-AFC substrate (MP Biomedicals; Solon, OH) was added to each well. Plates were returned to the incubator with shaking at 100 rpm for 30 minutes, after which fluorescence was measured at Excitation/Emission 400/505 nm. % Inhibition was calculated from RFU values compared to control cell wells that received only PBS plus 0.5% DMSO. IC50 values for each compound were calculated via the XLFit (IDBS Version 5.3.1.3) Add-On to Microsoft Excel using the four parameter fit equation y=(A+((B−A)/(1+((C/x)^D)))), which appears as equation number 205 (4 Parameter Logistic Model or Sigmoidal Dose-Response Model) in XLFit. IC50 was defined as the compound concentration at which 50% of enzyme activity was inhibited when compared to the no-compound control.

The next experiment has as its target human DPP1 enzyme (Homo sapiens, UniProt P53634). The experiment in a line: Human DPP1 Enzyme IC50 Assay. The experiment is classed as biochemical. To be noted: activated recombinant human DPP1, 400 μM H-Gly-Arg-AMC, 10 minutes pre-incubation at 37° C., pH 6.0; average of n runs; read-out: Avg. IC50 (Human DPP1 enzyme IC50 value ranges). On the set-up: was first proteolytically processed into its mature form using recombinant human cathepsin L; purchased R&D Systems. As for the experimental part:
Example 97. Human DPP1 Enzyme IC50 Assay
Recombinant human DPP1 enzyme (R&D Systems; Minneapolis, MN) was first proteolytically processed into its mature form using recombinant human cathepsin L (R&D Systems) in a buffer consisting of 20 mM citric acid pH 4.5, 150 mM NaCl, 1 mM EDTA and 10 mM DTT. Test articles were applied to activated human DPP1 enzyme in Assay Buffer (25 mM MES pH 6.0, 50 mM NaCl, 5 mM DTT) in a total reaction volume of 125 μL. 25 μL of compound in Assay Buffer plus 5% DMSO was first added to 50 μL of activated human DPP1 enzyme at a concentration of 1 ng/μL and allowed to pre-incubate for 10 minutes at 37° C. after which 50 μL of 1000 μM H-Gly-Arg-AMC substrate (Bachem; St. Torrance, CA) was added, giving final substrate concentration of 400 μM and a final DMSO concentration of 1%. Substrate cleavage was measured for 90 minutes at 37° C., with fluorescence at Excitation/Emission 350/450 nm measured every 5 minutes. DPP1 concentration was interpolated based on its activity relative to a standard curve of activated human recombinant DPP1 enzyme. IC50 values for each compound were calculated via the XLFit (IDBS Version 5.3.1.3) Add-On to Microsoft Excel using the four parameter fit equation y={A+[(B−A)]/[1+((C/x)^D)]}, which appears as equation number 205 (4 Parameter Logistic Model or Sigmoidal Dose-Response Model) in XLFit. Default constraints were used for each Parameter. IC50 was defined as the compound concentration at which 50% of enzyme activity was inhibited when compared to the no-compound control.

human DPP1 enzyme, sequence (P53634 25-134 limits assumed): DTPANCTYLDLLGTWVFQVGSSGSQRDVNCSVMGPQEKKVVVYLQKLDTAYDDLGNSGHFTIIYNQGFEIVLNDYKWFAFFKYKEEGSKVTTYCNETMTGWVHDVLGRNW
human DPP1 enzyme, sequence (P53634 231-394 limits assumed): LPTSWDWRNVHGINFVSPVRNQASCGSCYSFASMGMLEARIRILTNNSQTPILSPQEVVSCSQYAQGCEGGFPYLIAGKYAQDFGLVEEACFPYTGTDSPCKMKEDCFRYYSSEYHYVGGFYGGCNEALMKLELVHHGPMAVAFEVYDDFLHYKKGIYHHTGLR
human DPP1 enzyme, sequence (P53634 395-463 limits assumed): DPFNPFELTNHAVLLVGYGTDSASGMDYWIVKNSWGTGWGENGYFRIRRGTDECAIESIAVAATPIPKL
DPP1 in HL-60 cells, sequence (P53634 25-463): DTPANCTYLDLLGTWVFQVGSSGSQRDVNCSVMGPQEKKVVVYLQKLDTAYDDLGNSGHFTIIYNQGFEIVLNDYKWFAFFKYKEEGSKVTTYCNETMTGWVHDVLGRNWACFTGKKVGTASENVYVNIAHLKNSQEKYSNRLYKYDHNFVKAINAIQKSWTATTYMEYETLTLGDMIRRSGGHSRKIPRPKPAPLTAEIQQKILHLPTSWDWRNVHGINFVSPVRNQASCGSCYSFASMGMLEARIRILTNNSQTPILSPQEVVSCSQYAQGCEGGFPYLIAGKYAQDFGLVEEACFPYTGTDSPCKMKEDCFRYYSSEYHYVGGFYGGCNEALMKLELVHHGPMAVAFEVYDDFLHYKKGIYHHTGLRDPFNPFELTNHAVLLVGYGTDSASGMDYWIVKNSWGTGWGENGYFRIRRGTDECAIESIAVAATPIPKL

As to `CO[C@@H]1CCNC[C@@H](C(=O)N[C@H](C#N)Cc2ccc(-c3ccc4c(n3)CCCN4)cc2)OC1` [Compound A33, (2S,7R)—N—((S)-1-cyano-2-(4-(5,6,7,8-tetrahydro-1,5-naphthyridin-2-yl)phenyl)ethyl)-7-methoxy-1,4-oxazocane-2-carboxamide], the IC50 on DPP1 in HL-60 cells is over 2.5 nM; on human DPP1 enzyme, under 5 nM.

Take `CO[C@@H]1CCNC[C@@H](C(=O)N[C@H](C#N)Cc2ccc(-c3cc4c(C)nc(C)cn4c3)s2)OC1` [Compound A34, (2S,7R)—N-[(1S)-1-cyano-2-(5-{1,3-dimethylpyrrolo[1,2-a]pyrazin-7-yl}thiophen-2-yl)ethyl]-7-methoxy-1,4-oxazocane-2-carboxamide]: the IC50 at DPP1 in HL-60 cells was 1 to 2.5 nM; at human DPP1 enzyme, over 15 nM.

In the case of `CO[C@@H]1CCNC[C@@H](C(=O)N[C@H](C#N)Cc2ccc(-c3cc4c(C)nc(C)cn4c3)c(F)c2)OC1` [Compound A35, (2S,7R)—N-[(1S)-1-cyano-2-(4-{1,3-dimethylpyrrolo[1,2-a]pyrazin-7-yl}-3-fluorophenyl)ethyl]-7-methoxy-1,4-oxazocane-2-carboxamide], the IC50 was in the range of 1 to 2.5 nM on DPP1 in HL-60 cells and 5 to 15 nM at human DPP1 enzyme.

With `CO[C@@H]1CCNC[C@@H](C(=O)N[C@H](C#N)Cc2ncc(-c3ccc4c(F)nn(C)c4c3)s2)OC1` [Compound A36, (2S,7R)—N-[(1S)-1-cyano-2-[5-(3-fluoro-1-methylindazol-6-yl)-1,3-thiazol-2-yl]ethyl]-7-methoxy-1,4-oxazocane-2-carboxamide], the half-maximal inhibitory concentration (IC50) was over 2.5 nM at DPP1 in HL-60 cells and over 15 nM on human DPP1 enzyme.

Take `CO[C@@H]1CCNC[C@@H](C(=O)N[C@H](C#N)Cc2ncc(-c3ccc4c(n3)CCCN4)s2)OC1` [Compound A37, (2S,7R)—N—((S)-1-cyano-2-(5-(5,6,7,8-tetrahydro-1,5-naphthyridin-2-yl)thiazol-2-yl)ethyl)-7-methoxy-1,4-oxazocane-2-carboxamide]: the results for the IC50 on DPP1 in HL-60 cells and at human DPP1 enzyme were over 2.5 nM and over 15 nM, respectively.

Regarding `CO[C@@H]1CCNC[C@@H](C(=O)NC(C#N)Cc2cnc(-c3ccc4c(n3)CCCN4)s2)OC1` (stereo partly drawn) [Compound A39, (2S,7R)—N-{1-cyano-2-[2-(5,6,7,8-tetrahydro-1,5-naphthyridin-2-yl)-1,3-thiazol-5-yl]ethyl}-7-methoxy-1,4-oxazocane-2-carboxamide], the figures for the IC50 at DPP1 in HL-60 cells and on human DPP1 enzyme were over 2.5 nM and over 15 nM, respectively.

Take `CN1CCCc2ncc(-c3ccc(C[C@@H](C#N)NC(=O)[C@@H]4CNCCCO4)cc3)cc21` [Compound A40, (2S)—N-[(1S)-1-cyano-2-[4-(5-methyl-7,8-dihydro-6H-1,5-naphthyridin-3-yl)phenyl]ethyl]-1,4-oxazepane-2-carboxamide]: the IC50 on DPP1 in HL-60 cells was over 2.5 nM; on human DPP1 enzyme, over 15 nM.

Consider `N#C[C@H](Cc1ccc(-c2cnc3c(c2)NCCC3)cc1)NC(=O)[C@@H]1CNCCCO1` [Compound A41, (2S)—N-[(1S)-1-cyano-2-[4-(5,6,7,8-tetrahydro-1,5-naphthyridin-3-yl)phenyl]ethyl]-1,4-oxazepane-2-carboxamide], for which the results for the IC50 at DPP1 in HL-60 cells and on human DPP1 enzyme were over 2.5 nM and over 15 nM, respectively.

In the case of `CO[C@H]1CCO[C@H](C(=O)N[C@H](C#N)Cc2ccc(-c3cc4c(C)nc(C)cn4c3)cc2)CNC1` [Compound A42, (2S,6S)—N-[(1S)-1-cyano-2-(4-{1,3-dimethylpyrrolo[1,2-a]pyrazin-7-yl}phenyl)ethyl]-6-methoxy-1,4-oxazocane-2-carboxamide], the IC50 was 1 to 2.5 nM on DPP1 in HL-60 cells and over 15 nM at human DPP1 enzyme.

Turning to `CO[C@H]1CCO[C@H](C(=O)N[C@H](C#N)Cc2ccc(-c3ccc4c(n3)CCCN4)cc2)CNC1` [Compound A43, (2S,6S)—N—((S)-1-cyano-2-(4-(5,6,7,8-tetrahydro-1,5-naphthyridin-2-yl)phenyl)ethyl)-6-methoxy-1,4-oxazocane-2-carboxamide], the results for the IC50 on DPP1 in HL-60 cells and at human DPP1 enzyme were over 2.5 nM and over 15 nM, respectively.

Regarding `CO[C@H]1CCO[C@H](C(=O)N[C@H](C#N)Cc2ccc(-c3cc4c(C)nc(C)cn4c3)s2)CNC1` [Compound A44, (2S,6S)—N-[(1S)-1-cyano-2-(5-{1,3-dimethylpyrrolo[1,2-a]pyrazin-7-yl}thiophen-2-yl)ethyl]-6-methoxy-1,4-oxazocane-2-carboxamide], the IC50 at DPP1 in HL-60 cells was over 2.5 nM; on human DPP1 enzyme, over 15 nM.

`CO[C@H]1CCO[C@H](C(=O)N[C@H](C#N)Cc2ccc(-c3cc4c(C)nc(C)cn4c3)cc2F)CNC1` [Compound A48, (2S,6S)—N-[(1S)-1-cyano-2-(4-{1,3-dimethylpyrrolo[1,2-a]pyrazin-7-yl}-2-fluorophenyl)ethyl]-6-methoxy-1,4-oxazocane-2-carboxamide]: the IC50 lay in the range of 1 to 2.5 nM on DPP1 in HL-60 cells and 5 to 15 nM on human DPP1 enzyme.

Take `CO[C@H]1CCO[C@H](C(=O)N[C@H](C#N)Cc2ccc(-c3ccc4c(n3)CCCN4)cc2F)CNC1` [Compound A49, (2S,6S)—N-[(1S)-1-cyano-2-[2-fluoro-4-(5,6,7,8-tetrahydro-1,5-naphthyridin-2-yl)phenyl]ethyl]-6-methoxy-1,4-oxazocane-2-carboxamide]: the IC50 on DPP1 in HL-60 cells was over 2.5 nM; on human DPP1 enzyme it was 5 to 15 nM.

`CO[C@@H]1CCNC[C@@H](C(=O)N[C@H](C#N)Cc2ccc(-c3ccc4c(n3)CCCN4)cc2F)OC1` [Compound A50, (2S,7R)—N-[(1S)-1-cyano-2-[2-fluoro-4-(5,6,7,8-tetrahydro-1,5-naphthyridin-2-yl)phenyl]ethyl]-7-methoxy-1,4-oxazocane-2-carboxamide]: the IC50 at DPP1 in HL-60 cells is 1 to 2.5 nM; on human DPP1 enzyme, under 5 nM.

For the compound `N#C[C@H](Cc1ccc(-c2cc3cnccn3c2)cc1)NC(=O)[C@@H]1CNCCCO1` [Compound A54], the IC50 at DPP1 in HL-60 cells is over 2.5 nM; at human DPP1 enzyme, over 15 nM.

As to `Cc1cc2cc(-c3ccc(C[C@@H](C#N)NC(=O)[C@@H]4CNCCCO4)cc3)cn2c(C)n1` [Compound A57], the figures for the IC50 at DPP1 in HL-60 cells and at human DPP1 enzyme were over 2.5 nM and over 15 nM, respectively.

For the compound `Cc1nc(C)c2cc(-c3ccc(C[C@@H](C#N)NC(=O)[C@@H]4CNCCCO4)cc3)cn2c1C` [Compound A60], the IC50 was over 2.5 nM at DPP1 in HL-60 cells and over 15 nM at human DPP1 enzyme.

On to `Cc1ncc(C)n2cc(-c3ccc(C[C@@H](C#N)NC(=O)[C@@H]4CNCCCO4)cc3)cc12` [Compound A63], for which the IC50 at DPP1 in HL-60 cells is over 2.5 nM; on human DPP1 enzyme it was over 15 nM.

As to `N#C[C@H](Cc1ccc(-c2cc3c(F)nccn3c2)cc1)NC(=O)[C@@H]1CNCCCO1` [Compound A66], the IC50 at DPP1 in HL-60 cells is over 2.5 nM; on human DPP1 enzyme it was over 15 nM.

For the compound `CO[C@@H]1CNC[C@@H](C(=O)N[C@H](C#N)Cc2ccc(-c3cc4c(C)nc(C)cn4c3)cc2F)OC1` [Compound A88-A], the IC50 on DPP1 in HL-60 cells was over 2.5 nM; on human DPP1 enzyme, over 15 nM.

For the compound `CO[C@H]1CNC[C@@H](C(=O)N[C@H](C#N)Cc2ccc(-c3cc4c(C)nc(C)cn4c3)cc2F)OC1` [Compound A88-B], the IC50 is under 1 nM on DPP1 in HL-60 cells and under 5 nM at human DPP1 enzyme.

Take `Cn1ccc2ncc(-c3ccc(C[C@@H](C#N)NC(=O)[C@@H]4CNCCCO4)cc3)cc21` [Compound A143]: the results for the half-maximal inhibitory concentration (IC50) on DPP1 in HL-60 cells and on human DPP1 enzyme were over 2.5 nM and over 15 nM, respectively.

Regarding `CO[C@@H]1CCNC[C@@H](C(=O)N[C@H](C#N)Cc2ccc(-c3ccc4c(c3)CCC(=O)N4C)cc2)OC1` [Compound A145], the results for the concentration for half-maximal inhibition (IC50) at DPP1 in HL-60 cells and on human DPP1 enzyme were 1 to 2.5 nM and under 5 nM, respectively.

Take `COC1CNC[C@@H](C(=O)N[C@H](C#N)Cc2ccc(-c3ccc4c(c3)CCC(=O)N4C)cc2)OC1` (stereo partly drawn) [Compound A146]: the half-inhibitory concentration (IC50) on DPP1 in HL-60 cells was under 1 nM; at human DPP1 enzyme, under 5 nM.

The term IC50 denotes the midpoint of a concentration-inhibition curve.
